Measurements from patent US20070213257A1, “COMPOSITIONS AND METHODS FOR COMPLEXES OF NUCLEIC ACIDS AND PEPTIDES” (Nastech Pharmaceutical Company Inc., priority 2005, published 2007).
Where two headings read alike, the source gives them in different places.

Tests used:
LC20 siRNA/PN73 complex = LC20 siRNA/PN73 complex (Homo sapiens, UniProt P62807)
Protocol: (§1) In this example, size exclusion chromatography (SEC) coupled with an ultraviolet detector (UV 260nm) and static laser light scattering (LS) detector was used to characterize the physical properties of the LC20 siRNA/PN73 peptide complex in the presence or absence of the organic salt. In addition, the phosphate/nitrogen (P/N) charge ratio for LC20 siRNA/PN73 was calculated.
LC20 siRNA/PN73 aggregation was characterized in the presence or absence of NMDG-glutamate by SEC-UV/LS.

PN73 = PN73 (Homo sapiens, UniProt P62807); assay: SEC-UV/LS: effect of organic salt on PN73 aggregation; type: physicochemical; details: 100 mM salt, without LC20 siRNA
Chain of PN73 (P62807 13-48): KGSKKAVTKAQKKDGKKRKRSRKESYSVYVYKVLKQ
Protocol: as §1
PN73 in monomeric form is 4 kiloDaltons (kDA); however an intrinsic property of this peptide is to aggregate and form large complexes in solution. An initial study was performed to analyze the physical properties of PN73, without LC20 siRNA, in the presence and absence of 100 mM NMDG-glutamate salt or 9% sorbitol (no salt environment). […] In contrast, in the presence of 100 mM NMDG-glutamate salt, two distinct adjacent UV traces were observed indicating two distinct species of PN73 were present. […] Next, the ability of NMDG-glutamate and other organic salts to reduced PN73 aggregation in the presence of LC20 siRNA was characterized by SEC-UV/LS.

Chain of LC20 siRNA/PN73 complex (P62807 13-48 limits assumed, one chain of several): as the sequence (P62807 13-48) above

CNC[C@H](O)[C@@H](O)[C@H](O)[C@H](O)CO.N[C@@H](CCC(=O)O)C(=O)O [NMDG-glutamate, N-methyl-D-glucamine (NMDG)]
stabilization of LC20 siRNA/PN73 complex in solution (LC20 siRNA/PN73 complex; 1 mM salt): effective stabilizer
stabilization of LC20 siRNA/PN73 complex in solution (LC20 siRNA/PN73 complex; 10 mM salt): effective stabilizer
stabilization of LC20 siRNA/PN73 complex in solution (LC20 siRNA/PN73 complex; 100 mM salt): effective stabilizer
effect on PN73 aggregation (PN73): reduces PN73 aggregation significantly

N=C(N)NCCC[C@H](N)C(=O)O [arginine glutamate, arginine]
stabilization of LC20 siRNA/PN73 complex in solution (LC20 siRNA/PN73 complex; 1 mM salt): effective stabilizer
stabilization of LC20 siRNA/PN73 complex in solution (LC20 siRNA/PN73 complex; 10 mM salt): effective stabilizer
stabilization of LC20 siRNA/PN73 complex in solution (LC20 siRNA/PN73 complex; 100 mM salt): effective stabilizer
stabilization of LC20 siRNA/PN73 complex in solution (LC20 siRNA/PN73 complex; 150 mM salt): not an effective stabilizer

NCCCNCCCCNCCCN [spermine acetate, spermine]
stabilization of LC20 siRNA/PN73 complex in solution (LC20 siRNA/PN73 complex; 1 mM salt): effective LC20 siRNA/PN73 stabilizer
stabilization of LC20 siRNA/PN73 complex in solution (LC20 siRNA/PN73 complex; 10 mM salt): effective LC20 siRNA/PN73 stabilizer
stabilization of LC20 siRNA/PN73 complex in solution (LC20 siRNA/PN73 complex; 100 mM salt): dissociates the LC20 siRNA/PN73 peptide complex

trimethylethanolamine (Choline) [choline chloride]
stabilization of LC20 siRNA/PN73 complex in solution (LC20 siRNA/PN73 complex; 1 mM salt): may not be suitable as a stabilizer
stabilization of LC20 siRNA/PN73 complex in solution (LC20 siRNA/PN73 complex; 10 mM salt): may not be suitable as a stabilizer
stabilization of LC20 siRNA/PN73 complex in solution (LC20 siRNA/PN73 complex; 100 mM salt): may not be suitable as a stabilizer
